According to the supplement of paper PMC3937590:

Key:
Assay in all cases: -log10 GI50 (growth inhibition 50%) (-log10(M)); higher = more potent growth inhibition
[1] = test system: 184A1
Method in brief: (§1)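 Dose-response data came from breast cancer cell lines exposed to each compound for 72 hours at nine doses in 1:5 serial dilution, in triplicate, and read by luminescence relative to a time-zero plate. A Gompertz curve fitted by nonlinear least squares gave GI50, the molar concentration for the set level of growth inhibition, reported as its negative logarithm to base 10. Where a value equals the top dose, it carries a < qualifier.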

[2] = test system: 184B5
Method in brief: as §1

[3] = test system: BT483
Method in brief: as §1

[4] = test system: CAMA1
Method in brief: as §1

[5] = test system: HCC1187
Method in brief: as §1

[6] = test system: HCC1395
Method in brief: as §1

[7] = test system: HCC3153
Method in brief: as §1

[8] = test system: HS578T
Method in brief: as §1

[9] = test system: MCF10F
Method in brief: as §1

[10] = test system: MCF12A
Method in brief: as §1

[11] = test system: MDAMB415
Method in brief: as §1

[12] = test system: MDAMB453
Method in brief: as §1

[13] = test system: MX1
Method in brief: as §1

[14] = test system: SUM1315MO2
Method in brief: as §1

[15] = test system: SUM149PT
Method in brief: as §1

[16] = test system: SUM185PE
Method in brief: as §1

[17] = test system: SUM52PE
Method in brief: as §1

[18] = test system: T47D
Method in brief: as §1

[19] = test system: UACC812
Method in brief: as §1

[20] = test system: ZR751
Method in brief: as §1

-log10 GI50 [3] | -log10 GI50 [5] | -log10 GI50 [6] | -log10 GI50 [7] | -log10 GI50 [11] | -log10 GI50 [12] | -log10 GI50 [18] | Structure (SMILES) | -log10 GI50 [1] | -log10 GI50 [2] | -log10 GI50 [4] | -log10 GI50 [8] | -log10 GI50 [9] | -log10 GI50 [10] | -log10 GI50 [13] | -log10 GI50 [14] | -log10 GI50 [15] | -log10 GI50 [16] | -log10 GI50 [17] | -log10 GI50 [19] | -log10 GI50 [20]
4.78 | 5.12 | 4.53 | 4.51 | < 4.18 | 4.77 | < 4.18 | C#Cc1cccc(Nc2ncnc3cc(OCCOC)c(OCCOC)cc23)c1 [Erlotinib] | 6.64 | 6.32 | < 4.18 | < 4.18 | 6.54 | 6.27 | 5.16 | 5.03 | 5.7 | < 4.18 | 4.98 | 4.91 | < 4.18
< 4.3 | 6.1 | 4.69 | < 4.48 | 5.39 | 4.88 | < 4.48 | CC(C(C)N1CC(=O)NC(=O)C1)N1CC(=O)NC(=O)C1 (stereo not given) [ICRF-193] | < 4.3 | < 4.48 | < 4.3 | 5.63 | < 4.3 | 6.71 | 5.95 | 6.35 | 5.59 | < 4.3 | 5.6 | < 4.48 | 6.07
3.82 | 4.6 | 4.77 | 4.52 | 4.64 | 4.95 | 4.79 | Cc1ccc(NC(=O)c2ccc(CN3CCN(C)CC3)cc2)cc1Nc1nccc(-c2cccnc2)n1 [Imatinib] | 4.86 | 4.63 | 4.71 | 4.1 | 4.71 | 4.37 | 4.65 | 4.63 | 4.67 | 4.91 | 4.65 | 4.98 | 4.56
5.27 | 8.66 | 7.96 | 8.21 | 8.41 | 8.34 | 8.26 | C/C(=C\c1csc(C)n1)[C@@H]1C[C@@H]2O[C@]2(C)CCC[C@H](C)[C@H](O)[C@@H](C)C(=O)C(C)(C)[C@@H](O)CC(=O)N1 [Ixabepilone] | 6.67 | 6.76 | 9.02 | 8.62 | 8.08 | 8.13 | 8.53 | 8.22 | 8.26 | 8.07 | 9.53 | 5.24 | 6.68
6.81 | 7.1 | 6.64 | 6.84 | 7.08 | 6.41 | 6.97 | CC(C)C[C@@H](C=O)NC(=O)[C@H](CC(C)C)NC(=O)[C@H](CC(C)C)NC(=O)OCc1ccccc1 [MG-132] | 7.73 | 7.79 | 6.69 | 6.64 | 7.14 | 7.32 | 6.88 | 6.92 | 6.8 | 7.01 | 7.12 | 6.72 | 6.26
5.53 | 6.09 | 5.73 | 6.44 | 6.95 | 5.81 | 6.93 | NS(=O)(=O)OC[C@@H]1C[C@@H](n2ccc3c(N[C@H]4CCc5ccccc54)ncnc32)C[C@@H]1O [MLN4924] | 6.24 | 6.93 | 7.29 | 6.63 | 6.2 | 7.04 | 5.7 | 5.67 | 6.73 | 7.27 | 6.41 | 5.98 | 5.32
5.67 | 5.4 | 6.33 | 6.69 | 6.28 | 6.75 | 5.66 | COC(=O)Nc1nc2cc(C(=O)c3ccccc3)ccc2[nH]1 [Mebendazole] | < 4.18 | < 4.18 | 6.33 | 6.46 | 5.45 | 5.74 | 6.42 | < 4.18 | 6.18 | 6.3 | 6.85 | 4.9 | 6.62
5.01 | 4.85 | < 4.48 | 5.21 | 5.25 | 5.2 | 4.88 | Cc1c(O)cccc1C(=O)N[C@@H](CSc1ccccc1)[C@H](O)CN1C[C@H]2CCCC[C@H]2C[C@H]1C(=O)NC(C)(C)C [Nelfinavir] | 5.48 | 5.33 | 5.37 | 5.07 | 4.99 | 4.64 | 5.15 | < 4.48 | 4.98 | 5.24 | 4.75 | < 4.48 | 4.94
5.19 | 4.78 | 4.65 | 4.56 | 4.46 | 4.25 | 4.51 | COc1ccc(C2=N[C@@H](c3ccc(Cl)cc3)[C@@H](c3ccc(Cl)cc3)N2C(=O)N2CCNC(=O)C2)c(OC(C)C)c1 [Nutlin 3a] | 5.46 | 5.3 | 4.34 | < 4.18 | 5.18 | 5.82 | 4.65 | 4.75 | 4.56 | 4.54 | 4.74 | 5.45 | 5.51
5.24 | 5.18 | 5.72 | 5.51 | 5.32 | 5.31 | 5.18 | CC[C@H](CO)Nc1nc(NCc2ccccc2O)c2ncn(C(C)C)c2n1 [Olomoucine II] | 5.5 | 5.53 | 5.3 | 5.18 | 5.03 | 5.22 | 5.24 | 5.47 | 5.18 | 5.98 | 5.19 | 5.19 | 5.21
6.27 | 6.19 | 5.67 | 5.82 | 6.22 | 6.56 | 6.06 | O=C(/C=C/C#Cc1cccc(NS(=O)(=O)c2ccccc2)c1)NO [Oxamflatin] | 5.86 | 6.06 | 6.09 | 5.86 | 5.41 | 5.76 | 6.32 | 5.64 | 6.23 | 6.51 | 6.23 | 5.75 | 5.65
< 2.53 | < 2.53 | < 2.53 | < 2.53 | < 2.53 | < 2.53 | < 2.53 | Nc1nc2[nH]cc(CCc3ccc(C(=O)N[C@@H](CCC(=O)O)C(=O)O)cc3)c2c(=O)[nH]1 [Pemetrexed] | 6.38 | 6.44 | 4.62 | 4.59 | < 2.53 | 6.72 | < 2.53 | < 2.53 | < 2.53 | < 2.53 | < 2.53 | < 2.53 | 5.05
< 3.88 | 4.42 | < 3.88 | < 3.88 | < 3.88 | < 3.88 | < 4.18 | N#Cc1c(-c2ccccc2)cc(-c2cc(Br)ccc2O)[nH]c1=O [TCS PIM-11] | 5.16 | 5.61 | < 3.88 | < 4.18 | < 3.88 | 4.36 | 4.73 | 4.75 | 4.49 | 4.67 | 4.72 | < 3.88 | 4
5 | 5.32 | 4.5 | 4.62 | 4.73 | 5.22 | 5.46 | CC(/C=C/C(=O)NO)=C\[C@@H](C)C(=O)c1ccc(N(C)C)cc1 [Trichostatin A] | 4.73 | 4.34 | 5.57 | 4.77 | 4.22 | 4.71 | 4.79 | 4.31 | 5.14 | 4.76 | 5.58 | 5.05 | 4.74
5.44 | 6.89 | 5.21 | 4.72 | 5.58 | 5.03 | 5.03 | Cc1cc(Nc2cc(N3CCN(C)CC3)nc(Sc3ccc(NC(=O)C4CC4)cc3)n2)n[nH]1 [VX-680] | 5.64 | 5.74 | 4.53 | 6.57 | 4.99 | 6.33 | 6.81 | 5.8 | 5.07 | 5.62 | 6.42 | 4.79 | 5.29
3.01 | 2.78 | 2.47 | 2.55 | 3.06 | 3.15 | 2.53 | CCCC(CCC)C(=O)O [Valproic acid] | 3 | 3.07 | 2.79 | 2.32 | 2.42 | 2.74 | 3.45 | 2.62 | 2.86 | 2.84 | 2.91 | 2.59 | 2.78

Structure (SMILES) | -log10 GI50 [3] | -log10 GI50 [5] | -log10 GI50 [6] | -log10 GI50 [7] | -log10 GI50 [11] | -log10 GI50 [12] | -log10 GI50 [18] | -log10 GI50 [1] | -log10 GI50 [2] | -log10 GI50 [4] | -log10 GI50 [8] | -log10 GI50 [9] | -log10 GI50 [10] | -log10 GI50 [13] | -log10 GI50 [14] | -log10 GI50 [15] | -log10 GI50 [16] | -log10 GI50 [17] | -log10 GI50 [19] | -log10 GI50 [20]
C[C@]12O[C@H](C[C@]1(O)CO)n1c3ccccc3c3c4c(c5c6ccccc6n2c5c31)CNC4=O [Lestaurtinib] | 6.21 | 6.13 | 6.91 | 5.06 | 6.46 | 6.19 | 5.25 | 5.87 | 6.49 | 5.42 | 5.99 | 5.72 | 6.33 | 7.17 | 7.45 | 7.12 | 7.2 | 6.87 | 5.75 | 5.75
O=S(=O)(CC1CS1)c1ccc(Oc2ccccc2)cc1 (stereo not given) [SB-3CT] | 4.59 | 4.83 | 4.03 | < 4 | 4.77 | < 3.78 | < 4 | < 3.78 | < 3.78 | < 4 | 4.42 | < 4 | < 3.78 | 4.85 | 4.02 | 4.27 | 4.75 | 4.33 | < 4 | < 3.78
